The source of these data is patent US6569862B1, “Methods for treatment of disorders of cardiac contractility” (Johns Hopkins University, priority 1997, dated 2003).

“Also recorded” adds a separate entry of the source.

The subject of one data set is cardiac muscle. The data set can be described thus: steady-state analysis of calcium sensitivity (steady-state force versus steady-state [Ca2+]i). The data set is classed as cell-based, rat. The conditions noted are these: for effects on calcium sensitivity, comparison of the two agents: FIG. 4. The source says:
A particularly rigorous method of assessing calcium sensitivity is by steady-state analysis by procedures disclosed in Gao, W. D. et al., supra. […] That response represents defining characteristics of a calcium-sensitizing agent.

A short description of data set [1]: plasma level estimate in 25 kg dogs. It is filed as in vivo. As to conditions: 200 mg i.v. in 25 kg dogs. The source says:
(§1) The ECG was continuously monitored.

Data set [2] relates to LV contractility in conscious dogs. Description: cardiac performance in conscious dogs before and after pacing-induced heart failure (pressure-dimension relations). The data set is classed as in vivo. As to conditions: for PRSW (slope of stroke work/end-diastolic dimension relation): 200 mg infused over 30 minutes in the right atrium.
Source text: 1. Surgical preparation for chronic dog protocol. Male mongrel dogs (20-30 kg) were anesthetized with 1-2% halothane after induction with sodium pentothal. The chest was opened via a lateral thoracotomy, and indwelling catheters (Tygon; Norton Plastics and Synthetic Division) were secured in the right atrium (for drug infusion) and in the descending aorta (for pressure measurement). An indwelling high fidelity micromanometer (P22, Konigsberg Instruments) was placed in the left ventricle (LV) through an apical stab. […] Pacing leads were attached to the left atrium for acute pacing during experimentation, and epicardial leads for chronic pacing were attached to the right ventricular free wall and connected to a programmable pacemaker (Spectrax, Medtronics) within a subcutaneous pocket. The chest was closed in layers, catheters and leads were externalized to the mid-scapulae, and protected by an external jacket. Analgesia (morphine, 10 mg s.c.) was given in the immediate postoperative period as necessary. Antibiotics were administered for the first 72 hours after surgery. The dogs were allowed to recover fully for 7-10 postoperative days before experimentation. The surgical and experimental protocol was approved by Johns Hopkins School of Medicine Animal Care and Use Committee.
3. Heart failure was induced by chronic rapid ventricular pacing at a rate of 210 bpm for 3 weeks, followed by 240 bpm for one week. […] Acute pacing (140 bpm) was used to keep heart rate constant during the experiments.
a. The analysis of pressure-dimension relationships and the arterial pressure response allowed the evaluation of variables related to myocardial systolic and diastolic performance. […] Preload was indexed as the left ventricular end diastolic anterior -posterior short axis dimension (LVEDD) or the LV end-diastolic volume from the conductance catheter. Afterload was evaluated as effective arterial elastance (Ea, ratio of LV systolic pressure to stroke dimension (Kass, D. A. 1997, Myocardial Mechanics. In Heart Failure. P. Poole-Wilson et al., eds. Churchill Livingstone, New York. 87-108; Kelly, R. P., C. T. Ting, and T. M. Yang. 1992, Circulation 86:513-521). This parameter is not preload-dependent and has been validated to reflect total afterload, which incorporates systemic vascular resistance, aortic impedance, and the reflected wave properties of the vasculature. Contractility was indexed by +dP/dt and the load-independent parameter, preload-recruitable stroke work (PRSW; slope of stoke work/end-diastolic dimension relation) (Kass, D. A., 1986, Circulation 73:586-595). Diastolic performance was measured by peak −dP/dt, time to peak filling rate (ttpf), and the time constant of relaxation (tau). Tau was calculated using the method of Weiss and colleagues (Ingwall, J. S. 1993, Circulation 87:VII-58-VII-62.).
as §1

For the next data set, the system named is canine left ventricle. Description: cardiac energetics (O2 consumption, mechanical efficiency) in anesthetized control and heart failure dogs. The data set is classed as in vivo. As for the experimental part:
3. Heart failure was induced by chronic rapid ventricular pacing at a rate of 210 bpm for 3 weeks, followed by 240 bpm for one week. This brought the dogs into heart failure with an average left ventricular end-diastolic pressure (LVEDP) of 23.5∀5.2 mm Hg. Acute pacing (140 bpm) was used to keep heart rate constant during the experiments.
b. Oxygen consumption per unit time (MVO2) in the left circumflex artery territory was calculated from the difference in oxygen saturation in simultaneously sampled coronary sinus and aortic blood, multiplied by left circumflex coronary blood flow. This, in turn, was calculated from flow velocity multiplied by left circumflex diameter. Left circumflex diameter was analyzed from a film projector (CAP 35B, Angiogram Projection System) using quantitative angiography (Cath View v1.36, Image Comm Systems).
c. The external useful work of the LV was indexed as stroke work (SW=area of pressure-volume loops). Both stroke SW and MVO2 were converted to Joules per beat (Suga, H. et al. 1983, Circ. Res. 53:306-318). Cardiac mechanical efficiency was calculated as SW/MVO2. Hemodynamic pressure-dimension data were digitized at 200 Hz and stored for subsequent analysis on a personal computer using customized software.
Isoflurane was chosen as the anesthetic because of its relatively mild and stable effect on the cardiovascular system (R M. Jones, British Journal of Anaesthesia, 56 Suppl 1:57S-69S (1984); E. I. Eger, British Journal of Anaesthesia, 56 Suppl 1:71S-99S (1984)). A doppler flow velocimeter (0.014 Cardiometrics) and a 6 Fr. angiography catheter (AL-I or JL 3.5, Cordis Laboratories Inc) were inserted through an 8 Fr sheath (Cordis) in the right femoral artery and advanced to the left circumflex coronary artery. These catheters permitted measurement of coronary flow and injection of contrast for the measurement of coronary diameter. A catheter (A2 multipurpose, 6 Fr.) was advanced from the left external jugular vein via a 7 Fr. sheath (Cordis) into the great cardiac vein for withdrawal of mixed coronary venous blood. To measure cardiac oxygen consumption, blood samples from the coronary sinus and the femoral artery were obtained simultaneously. At each time point, blood flow velocity in the left circumflex artery was measured and coronary angiography was performed.
In 4 of 11 experiments, preexisting indwelling sonomicrometer crystals, Konigsberg micromanometers, and IVC occluders (see above) were used for dimension and pressure measurements, and for acute preload reduction. In the other 7 experiments, a combined micromanometer-conductance catheter (M!illar) was advanced to the LV and positioned for continuous measurement of LV pressure and volume via a 7 Fr. sheath (Cordis) in the femoral artery. A Swan-Ganz catheter (Arrow, 7 Fr.) was advanced via a 9F sheath in the femoral vein to the pulmonary artery for measurement of cardiac output and for hypertonic saline wash-in (Baan, J., E. van der Velde, A. D. van Dijk and et al. 1992, In Cardiovascular system dynamics: Models and measurements. Anonymous Plenum Press, New York, 569; Kass, D. A. et al. 1986. Circulation 73:586-595) to calibrate the volume signal. This catheter was then replaced with a balloon occlusion catheter (Cordis) positioned in the IVC for acute preload reduction for pressure-volume analysis.
A combined manometer-conductance catheter was positioned in the left ventricle for continuous measurement of volume and pressures in the ventricle and aorta. Volume was calibrated with measurement of cardiac output and hypertonic saline wash-in. In addition, dogs were acutely instrumented a doppler flow velocimeter probe and an angiography catheter in the left circumflex coronary artery to measure coronary flow velocity and coronary diameter. […]

For data set [3] the following is noted: after a standard dose (300 mg p.o.); cited from earlier work.
For data set [4] the following is noted: value used for the dose extrapolation in 25 kg dogs; cited from earlier work.
A further data set relates to phosphodiesterase. As to conditions: stated as well established; cited from earlier work.
The test system of the next data set is rat cardiac muscle. The data set can be described thus: in vitro calcium-sensitizing assay: contractile force and fura-2 [Ca2+]i in rat cardiac muscle.

As for `Oc1ncnc2[nH]ncc12` [allopurinol, 4-hydroxy-pyrazolo[3,4-d]pyrimidine], the “effects on calcium sensitivity, comparison of the two agents” value with cardiac muscle was “essentially indistinguishable effects on calcium sensitivity”. Moreover, in the data set with cardiac muscle (steady-state analysis, FIG. 2), the maximal force entry is given as “increased maximal force”. The “contractile activation curve (steady-state force vs steady-state [Ca2+]i)” value with cardiac muscle (versus control muscles exposed to no drug, FIG. 2) was “shifted the contractile activation curve to lower [Ca^2+]i”. Further, in data set [1], the “plasma level estimated to be attained” value is 4500 ng/mL. Moreover, the “effect on healthy dogs” value in data set [2] (acted only in dogs with heart failure) is given as “did not adversely affect healthy dogs”. Also, the “PRSW (slope of stroke work/end-diastolic dimension relation)” value in data set [2] (after pacing-induced heart failure) is on record as “increased the slope after heart failure”; in data set [2] (control dogs), “did not affect the slope of the PRSW relation; also recorded: not significantly changed”. The “change of (dP/dt)max at the peak response” value in data set [2] (control dogs (n=10), 10 min after end of infusion, p=0.01) was “+8.3±3.2%”. The “(dP/dt)max at the peak response” value in data set [2] (control dogs (n=10), 10 min after end of infusion, base line value 3101±162) is listed as 3373±225 mm Hg/s. Also, the “effect on diastolic function” value in data set [2] (in vivo use, dogs) is recorded as “no adverse effect on diastolic function”. Moreover, the oxygen utilization result with canine left ventricle (failing canine left ventricle, 200 mg iv) is on record as “decreases oxygen utilization”. Moreover, the “myocardial arterio-venous oxygen difference” value in the data set on canine left ventricle (heart failure dogs, 200 mg iv) is listed as “not changed”. In addition, the “change in left circumflex blood flow” value with canine left ventricle (heart failure dogs, 10 min post-infusion of 200 mg iv over 30 minutes, p=0.0015) was −40±6%. For the same compound, the “plasma levels achieved in humans” value in data set [3] is 3000 to 9000 ng/mL. In data set [4], the distribution volume is listed as 1.6 L/kg. The phosphodiesterase inhibition entry in the data set with phosphodiesterase is reported as “no phosphodiesterase inhibition”. The “calcium ion concentration ([Ca2+]i)” value in the data set on rat cardiac muscle (fura-2, FIG. 1) is on record as “decreasing calcium ion concentration”. Also, the contractile force entry in the data set on rat cardiac muscle (relative to control not exposed, FIG. 1) is given as “increases contractile force”.
Consider `CC(CCc1ccc(O)cc1)NCCc1ccc(O)c(O)c1` (centres unmarked) [dobutamine], for which the “increase of oxygen consumption” value in the data set with canine left ventricle (heart failure dogs, infusion 10 μg/Kg/min, p=0.007) worked out at 145±53.0%. In the data set with canine left ventricle (heart failure dogs, infusion 10 μg/Kg/min, p=0.05), the “change of SW/MVO2” value is given as −29.3±6.8%. Also, the mechanical efficiency result with canine left ventricle (heart failure dogs, infusion 10 μg/Kg/min, FIG. 9) is given as “significant decrease in mechanical efficiency”.
Turning to `Oc1nc(O)c2cn[nH]c2n1` [oxypurinol, 4,6-dihydroxypyrazolo[3,4-d]pyrimidine], in the data set with cardiac muscle, the “effects on calcium sensitivity, comparison of the two agents” value was “essentially indistinguishable effects on calcium sensitivity”. Further, in the data set on cardiac muscle (treated versus control muscles, FIG. 3), the “force at any given [Ca2+]i” value is “generate more force at any given [Ca^2+]i than control muscles”.
